Tested on: PNH erythrocytes
Test: CAP-mediated hemolysis assay with PNH erythrocytes (subject A)
Format: cell-based, human
Conditions: for inhibition at 0.0234 µM: Compound 1 0.0234 μM; for inhibition at 0.0469 µM: Compound 1 0.0469 μM; for inhibition at 0.0938 µM: Compound 1 0.0938 μM; for inhibition at 0.1875 µM: Compound 1 0.1875 μM; for inhibition at 0.188 µM: Compound 1 0.188 μM; for inhibition at 0.375 µM: Compound 1 0.375 μM; for inhibition at 0.75 µM: Compound 1 0.75 μM; for inhibition at 1.5 µM: Compound 1 1.5 μM
Method: Complement-preserved normal human serum (NHS) from an individual donor of ABO blood group type AB (NHS-AB) was purchase from BioreclamationIVT (Westbury, NY). Gelatin veronal buffer (GVB), pH 7.3, without Ca^++ and Mg^++ (GVB^0) and 100 mM MgCl2 +100 mM EGTA (MgEGTA) were obtained from Complement Technology Inc. (Tyler, TX).
GVB^0·MgEGTA was prepared by mixing GVB^0 and 100 mM MgEGTA in a 9:1 ratio. PNH erythrocytes were used within five days of blood collection; before assay cells were collected by centrifugation at 800×g and 4° C. for 3 minutes and resuspended in fresh cold GVB^0·MgEGTA to a density of 5×10^8 cells/mL.
50 μL of NHS-AB was added to each well. The plates were mixed and incubated at room temperature for 5 minutes. 24 μL of this NHS-AB with compound was then transferred to duplicate wells of V-bottom microtiter plates each containing 76 μL GVB0·MgEGTA. 20 μL PNH erythrocytes was then added to each well and the plates were sealed, mixed, and incubated at 37° C. for 30 minutes with an added shaking for 15 minutes. […] Following incubation, PNH cells were removed by centrifugation at 800×g and 4° C. for 3 minutes, 100 μL supernatant per well was transferred to flat-bottom clear microtiter plates, and A405 of the supernatant was measured in a Molecular Devices Spectramax Plus plate reader.
Combinatorial interactions were analyzed via two methods.
Inhibition was analyzed by the method of Prichard and Shipman (Prichard, M. N. and C. Shipman, Jr. A Three-Dimensional Model to Analyze Drug-Drug Interactions. Antiviral Research 1990, 14:181-205) Three-dimensional surface graphs of each experiment were generated and analyzed using an Excel spreadsheet program adapted from the MacSynergy II spreadsheet (University of Alabama, Birmingham, AL). The X-axis and Y-axis of each surface graph represent the concentrations of the two test compounds, and the Z-axis represents the difference between measured inhibition and a theoretically determined additive inhibition. For an additive relationship, the surface graph resembles a horizontal plane at Z=0, whereas positive surface peaks indicate greater inhibition than expected and therefore synergy, and negative surface peaks indicate less inhibition than expected and therefore antagonism.
Synergy and antagonism volumes were calculated separately as the summed volumes of peaks respectively above and below the Z=0 plane. Volumes were determined using 95% confidence limits to assure significance.
Inhibition was analyzed by the method of Chou and Talalay (Chou, T.-C. and P. Talalay. Analysis of Combined Drug Effects: A New Look at a Very Old Problem. Trends Pharmacol. Sci. 1983, 4:450-454; Chou, T. C. Theoretical basis, experimental design, and computerized simulation of synergism and antagonism in drug combination studies. Pharmacological Reviews 2006, 58:621-681). Analysis using the median-effect equation of Chou and Talalay was performed with CompuSyn software (ComboSyn, Inc, Paramus, NJ). […] Combination index (CI) values were determined at inhibition values of 50%, 75%, and 90%.

[1] = Homo sapiens, Erythrocyte, Experiment 2, Eculizumab 0-400 μg/mL
[2] = Homo sapiens, Erythrocyte, Experiment 2, Compstatin 0-300 μM
[3] = Homo sapiens, Erythrocyte, Experiment #1, Compstatin 0-300 μM
[4] = Homo sapiens, Erythrocyte, Experiment #1, Eculizumab 0-400 μg/mL

`CC(=O)c1nn(CC(=O)N2C[C@H](F)C[C@H]2C(=O)Nc2cccc(Br)n2)c2ccc(-c3cnc(C)nc3)cc12` [Compound 1, (2S,4R)-1-(2-(3-acetyl-5-(2-methylpyrimidin-5-yl)-1H-indazol-1-yl)acetyl)-N-(6-bromopyridin-2-yl)-4-fluoropyrrolidine-2-carboxamide] gave an inhibition at 0.0234 µM [1] of 0%, an inhibition at 0.0469 µM [1] of 0% and an inhibition at 0.0938 µM [2] of 0%. It also gave an inhibition at 0.0938 µM [1] of 0%, an inhibition at 0.1875 µM [2] of 6% and an inhibition at 0.188 µM [1] of 7%. The inhibition at 0.375 µM [2] was 27%, the inhibition at 0.375 µM [1] was 27% and the inhibition at 0.75 µM [2] was 65%. The inhibition at 0.75 µM [1] was 42%, the inhibition at 1.5 µM [2] was 90% and the inhibition at 1.5 µM [1] was 77%. The inhibition at 3 µM (Homo sapiens, Erythrocyte, Experiment 2, Compound 1 3 μM, Compstatin 0-300 μM) was 97%, the inhibition at 6 µM (Homo sapiens, Erythrocyte, Experiment 2, Compound 1 6 μM, Compstatin 0-300 μM) was 97% and the inhibition at 0.0234 µM [3] was 0%. The inhibition at 0.0234 µM [4] was 4%, the inhibition at 0.0469 µM [3] was 0% and the inhibition at 0.0469 µM [4] was 2%. For the same molecule, the inhibition at 0.0938 µM [3] was 0%, the inhibition at 0.0938 µM [4] was 6% and the inhibition at 0.1875 µM [3] was 11%. The inhibition at 0.188 µM [4] was 14%, the inhibition at 0.375 µM [3] was 19% and the inhibition at 0.375 µM [4] was 24%. The inhibition at 0.75 µM [3] was 51%, the inhibition at 0.75 µM [4] was 55% and the inhibition at 1.5 µM [3] was 80%. For the same molecule, the inhibition at 1.5 µM [4] was 86%, the IC50 (Homo sapiens, Erythrocyte, AP activity in vitro) was 14 nM and the “inhibition at the high end of the test concentration ranges” value (single agent, PNH erythrocytes) was “complete inhibition”.

Reference: patent publication US20250032490A1, “THERAPEUTIC REGIMENS FOR TREATMENT OF PAROXYSMAL NOCTURNAL HEMOGLOBINURIA” (Achillion Pharmaceuticals, Inc., priority 2017, published 2025)
